Experimental data taken from patent US20220125959A1, “PROSTATE-SPECIFIC MEMBRANE ANTIGEN (PSMA) INHIBITORS AS DIAGNOSTIC AND RADIONUCLIDE THERAPEUTIC AGENTS” (FIVE ELEVEN PHARMA INC., priority 2019, published 2022).

System: PIP tumor and PC3 tumor
Assay: Biodistribution of 125I labeled compounds 17, 18, 26 and 27 in tumor bearing nude mice
Type: in vivo
Details: for Biodistribution: Bladder* / Biodistribution: Stomach* / Biodistribution: large intestine* / Biodistribution: small intestine*: organ with content; for PIP/blood / PIP/muscle: ratio
Method: Radioiodination and Purification: 100 μg of either precursor 13, 14, 22 or 23 were dissolved in 100 μL EtOH; 22 μL Na^125I (1033-1118 μCi in 0.1 N NaOH), 100 μL 1N HCl and 100 μL 3% H2O2 were added. After 15 minutes at room temperature, the reaction was stopped by adding 150 μL sat. NaHSO3. The reaction mixture was slowly added to 1.5 mL sat. NaHCO3. Vial was rinsed with 1000 μL EtOH and mixture was diluted further to 10 mL mL water. The active sample was transferred onto an activated C4 mini column. The mixture was pushed through, washed twice with 3 mL water and the product was eluted with 1 mL ACN. Added 100 μL DMSO. The mixture was concentrated to ˜100 μL and purified by HPLC (Agilent Eclipse XCD C18 150×4.6 mm, 5 μm; 4 mL/min, gradient (ACN and water; 0-1 min (20/80), 1-16 min (20/80-100/0), 16-16.5 min (100/0-20/80), 16.5-20 min 20/80) (collected every minute). The sample was blown to dryness under argon, re-dissolved in 500 μL CH2Cl2 and 1 mL TFA was added at room temperature. After 1 hr the solution was blown to dryness and activity taken into 1 mL EtOH (10 μL saturated ascorbic acid/EtOH was added). Isolated activities for [^125I]17, 18, 26, and 27 were 197, 189, 600 and 197 μCi respectively. A representative picture of HPLC profiles (FIG. 3) for radiolabeled protected (intermediate), cold standard and radioactive trace of final compound is shown for [^125I]26.
For iv injection 150 μL of labeled solution was diluted with saline to 3.75 mL. Mice were injected with 2˜3 μCi of [^125I]18, 27, 26, and 18 in 0.15 mL saline. Injected radioactivity was 2 to 3 μCi.
Biodistribution study of [^125I]18, 27, 26, and 18 in tumor bearing nude mice were evaluated for their ability to localization of PSMA positive tumor (Tables 5, 6, 7 and 8). It was observed that [^125I]26 and [^125I] […] These new agents are valuable for radionuclide therapy, when labeled with beta or alpha-emitting isotopes; but these agents will also be useful as diagnostic agents when labeled with gamma-emitting isotopes.

## O=C(O)CC[C@H](NC(=O)N[C@@H](CCCCNC(=O)[C@H](Cc1ccccc1)NC(=O)[C@H](CCC(=O)O)NC(=O)c1ccc([125I])cc1)C(=O)O)C(=O)O [[^125I]17]
1 h
  Biodistribution: Blood: 0.45 ± 0.11 % ID/g
  Biodistribution: Bone: 0.16 ± 0.02 % ID/g
  Biodistribution: Heart: 0.29 ± 0.04 % ID/g
  Biodistribution: Kidney: 41.44 ± 5.10 % ID/g
  Biodistribution: Liver: 2.94 ± 2.12 % ID/g
  Biodistribution: Lung: 1.15 ± 1.27 % ID/g
  Biodistribution: Muscle: 0.43 ± 0.24 % ID/g
  Biodistribution: PC3 tumor: 1.70 ± 1.33 % ID/g
  Biodistribution: PIP tumor: 10.72 ± 2.98 % ID/g
  Biodistribution: Pancreas: 0.55 ± 0.64 % ID/g
  Biodistribution: Skin: 0.57 ± 0.24 % ID/g
  Biodistribution: Spleen: 3.25 ± 1.52 % ID/g
  Biodistribution: gland: 0.81 ± 0.18 % ID/g
  Biodistribution: thyroid: 3.57 ± 0.75 % ID/g
  Biodistribution: Bladder*: 204.72 ± 108.11 % ID/g
  Biodistribution: Stomach*: 0.18 ± 0.05 % ID/g
  Biodistribution: large intestine*: 2.10 ± 1.64 % ID/g
  Biodistribution: small intestine*: 3.22 ± 1.64 % ID/g
  PIP/blood: 23.69 ± 2.07
  PIP/muscle: 27.52 ± 7.80
4 h
  Biodistribution: Blood: 0.09 ± 0.03 % ID/g
  Biodistribution: Bone: 0.03 ± 0.02 % ID/g
  Biodistribution: Heart: 0.11 ± 0.07 % ID/g
  Biodistribution: Kidney: 25.41 ± 7.57 % ID/g
  Biodistribution: Liver: 0.48 ± 0.53 % ID/g
  Biodistribution: Lung: 0.19 ± 0.13 % ID/g
  Biodistribution: Muscle: 0.25 ± 0.44 % ID/g
  Biodistribution: PC3 tumor: 0.28 ± 0.10 % ID/g
  Biodistribution: PIP tumor: 5.17 ± 2.02 % ID/g
  Biodistribution: Pancreas: 0.22 ± 0.25 % ID/g
  Biodistribution: Skin: 0.11 ± 0.04 % ID/g
  Biodistribution: Spleen: 0.46 ± 0.27 % ID/g
  Biodistribution: gland: 0.19 ± 0.05 % ID/g
  Biodistribution: thyroid: 7.16 ± 1.91 % ID/g
  Biodistribution: Bladder*: 68.75 ± 30.09 % ID/g
  Biodistribution: Stomach*: 0.11 ± 0.10 % ID/g
  Biodistribution: large intestine*: 0.86 ± 0.22 % ID/g
  Biodistribution: small intestine*: 0.23 ± 0.16 % ID/g
  PIP/blood: 62.95 ± 31.81
  PIP/muscle: 200.29 ± 221.74
mouse, in vivo
  Washout in PIP tumors, kidneys and spleen compared to [125I]18 and [125I]27: significantly faster washout

## O=C(O)CC[C@H](NC(=O)N[C@@H](CCCCNC(=O)[C@H](Cc1ccccc1)NC(=O)[C@H](CCC(=O)O)NC(=O)[C@H](CCC(=O)O)NC(=O)c1ccc([125I])cc1)C(=O)O)C(=O)O [[^125I]18]
1 h
  Biodistribution: Blood: 0.71 ± 0.31 % ID/g
  Biodistribution: Bone: 0.89 ± 0.08 % ID/g
  Biodistribution: Heart: 3.06 ± 0.48 % ID/g
  Biodistribution: Kidney: 96.21 ± 21.68 % ID/g
  Biodistribution: Liver: 3.57 ± 0.32 % ID/g
  Biodistribution: Lung: 3.16 ± 0.55 % ID/g
  Biodistribution: Muscle: 0.95 ± 0.27 % ID/g
  Biodistribution: PC3 tumor: 2.22 ± 0.58 % ID/g
  Biodistribution: PIP tumor: 13.29 ± 3.46 % ID/g
  Biodistribution: Pancreas: 1.66 ± 0.93 % ID/g
  Biodistribution: Skin: 1.48 ± 0.44 % ID/g
  Biodistribution: Spleen: 6.83 ± 0.46 % ID/g
  Biodistribution: gland: 4.03 ± 0.46 % ID/g
  Biodistribution: thyroid: 15.99 ± 1.88 % ID/g
  Biodistribution: Bladder*: 97.62 ± 20.87 % ID/g
  Biodistribution: Stomach*: 0.46 ± 0.29 % ID/g
  Biodistribution: large intestine*: 1.12 ± 0.65 % ID/g
  Biodistribution: small intestine*: 1.98 ± 0.27 % ID/g
  PIP/blood: 21.30 ± 8.28
  PIP/muscle: 16.14 ± 10.36
4 h
  Biodistribution: Blood: 0.33 ± 0.17 % ID/g
  Biodistribution: Bone: 0.45 ± 0.23 % ID/g
  Biodistribution: Heart: 1.60 ± 0.46 % ID/g
  Biodistribution: Kidney: 69.39 ± 24.24 % ID/g
  Biodistribution: Liver: 2.62 ± 1.62 % ID/g
  Biodistribution: Lung: 1.50 ± 0.65 % ID/g
  Biodistribution: Muscle: 0.69 ± 0.27 % ID/g
  Biodistribution: PC3 tumor: 1.20 ± 0.52 % ID/g
  Biodistribution: PIP tumor: 15.27 ± 5.40 % ID/g
  Biodistribution: Pancreas: 0.89 ± 0.13 % ID/g
  Biodistribution: Skin: 0.81 ± 0.37 % ID/g
  Biodistribution: Spleen: 4.37 ± 1.70 % ID/g
  Biodistribution: gland: 2.25 ± 0.80 % ID/g
  Biodistribution: thyroid: 26.99 ± 18.70 % ID/g
  Biodistribution: Bladder*: 123.13 ± 40.10 % ID/g
  Biodistribution: Stomach*: 0.72 ± 0.76 % ID/g
  Biodistribution: large intestine*: 0.74 ± 0.25 % ID/g
  Biodistribution: small intestine*: 1.11 ± 0.82 % ID/g
  PIP/blood: 50.29 ± 15.07
  PIP/muscle: 25.78 ± 14.13
mouse, in vivo
  Liver uptakes: low

## O=C(O)CC[C@H](NC(=O)N[C@@H](CCCCNC(=O)[C@H](Cc1ccccc1)NC(=O)COc1ccc(C[C@H](NC(=O)[C@H](CCC(=O)O)NC(=O)c2ccc([125I])cc2)C(=O)O)cc1)C(=O)O)C(=O)O [[^125I]26]
1 h
  Biodistribution: Blood: 0.46 ± 0.22 % ID/g
  Biodistribution: Bone: 0.48 ± 0.11 % ID/g
  Biodistribution: Heart: 0.73 ± 0.20 % ID/g
  Biodistribution: Kidney: 174.61 ± 30.65 % ID/g
  Biodistribution: Liver: 4.61 ± 1.72 % ID/g
  Biodistribution: Lung: 3.08 ± 0.87 % ID/g
  Biodistribution: Muscle: 1.72 ± 0.54 % ID/g
  Biodistribution: PC3 tumor: 2.39 ± 1.42 % ID/g
  Biodistribution: PIP tumor: 26.19 ± 3.46 % ID/g
  Biodistribution: Pancreas: 0.98 ± 0.42 % ID/g
  Biodistribution: Skin: 2.33 ± 0.61 % ID/g
  Biodistribution: Spleen: 21.66 ± 2.63 % ID/g
  Biodistribution: gland: 6.97 ± 1.06 % ID/g
  Biodistribution: thyroid: 13.21 ± 8.48 % ID/g
  Biodistribution: Bladder*: 14.69 ± 3.80 % ID/g
  Biodistribution: Stomach*: 0.35 ± 0.11 % ID/g
  Biodistribution: large intestine*: 1.24 ± 0.79 % ID/g
  Biodistribution: small intestine*: 1.08 ± 0.63 % ID/g
  PIP/blood: 66.04 ± 29.31
  PIP/muscle: 16.02 ± 3.85
4 h
  Biodistribution: Blood: 0.21 ± 0.21 % ID/g
  Biodistribution: Bone: 0.25 ± 0.06 % ID/g
  Biodistribution: Heart: 0.38 ± 0.23 % ID/g
  Biodistribution: Kidney: 114.69 ± 32.67 % ID/g
  Biodistribution: Liver: 4.90 ± 1.80 % ID/g
  Biodistribution: Lung: 2.08 ± 0.67 % ID/g
  Biodistribution: Muscle: 0.30 ± 0.19 % ID/g
  Biodistribution: PC3 tumor: 1.37 ± 0.45 % ID/g
  Biodistribution: PIP tumor: 14.32 ± 3.87 % ID/g
  Biodistribution: Pancreas: 0.52 ± 0.26 % ID/g
  Biodistribution: Skin: 1.67 ± 1.30 % ID/g
  Biodistribution: Spleen: 15.37 ± 3.26 % ID/g
  Biodistribution: gland: 2.03 ± 1.29 % ID/g
  Biodistribution: thyroid: 28.57 ± 10.04 % ID/g
  Biodistribution: Bladder*: 15.11 ± 4.09 % ID/g
  Biodistribution: Stomach*: 0.49 ± 0.27 % ID/g
  Biodistribution: large intestine*: 1.35 ± 0.47 % ID/g
  Biodistribution: small intestine*: 0.30 ± 0.11 % ID/g
  PIP/blood: 104.80 ± 62.05
  PIP/muscle: 60.91 ± 38.35
mouse, in vivo
  Liver uptakes: low
  Uptakes in PIP tumors, kidneys and spleen compared to [125I]17 and [125I]18: higher uptakes
  Washout in PIP tumors, kidneys and spleen compared to [125I]18 and [125I]27: significantly faster washout
